Source: ChEMBL document CHEMBL5506050, “Discovery of Oral AMP-Activated Protein Kinase Activators for Treating Hyperlipidemia” (J Med Chem, 2024)
Activity calls are given as the source filed them. The rule behind the calls is not given here.

Legend:
[1] = tested on: Rhesus monkey; assay: Lipid lowering effect in Rhesus monkey assessed as decrease in serum LDL-C level at 35 mg/kg, NG qd measured after 7 days; type: functional, organism-based; details: Macaca mulatta, time 7.0 day
[2] = Stability in human plasma assessed as compound remaining at 1 to 5 uM measured after 30 mins by LC-MS/MS analysis; type: ADME, cell-free; details: dose 1-5 µM, read-out: Stability
[3] = AUC (0 to t) in female Rhesus monkey at 70 mg/kg, po or 7 mg/kg, iv measured for 36 hrs by LC-tandem MS analysis; type: ADME, organism-based, Macaca mulatta; details: in vivo
[4] = tested on: Syrian golden hamster; assay: Lipid lowering effect on high-fat diet-fed golden hamster assessed as decrease in serum LDL-C level at 50 mg/kg, po qd administered via gavage measured after 4 weeks relative to control; type: functional, Mesocricetus auratus; design: scale not given: the % may be the effect or the level left
[5] = tested on: Syrian golden hamster; assay: Effect on food uptake in high-fat diet-fed golden hamster at 50 to 200 mg/kg, po qd administered via gavage measured after 4 weeks; type: functional, organism-based; details: Mesocricetus auratus, dose 50-200 mg/kg
[6] = Cmax in male Rhesus monkey at 70 mg/kg, po or 7 mg/kg, iv measured for 36 hrs by LC-tandem MS analysis; type: ADME, organism-based, Macaca mulatta; details: in vivo
[7] = tested on: Mus musculus; assay: Effect on Sdf2l1 mRNA level in liver of diet-induced obese C57BL/6 mouse model harboring AMPKalpha LS-/- at 200 mg/kg, po for 4 weeks by GO analysis; type: functional, organism-based
[8] = Tmax in male Rhesus monkey at 70 mg/kg, po or 7 mg/kg, iv measured for 36 hrs by LC-tandem MS analysis; type: ADME, organism-based, Macaca mulatta; details: in vivo
[9] = tested on: Syrian golden hamster; assay: Effect on adipose tissue weight in high-fat diet-fed golden hamster at 50 to 200 mg/kg, po qd administered via gavage measured after 4 weeks; type: functional, organism-based; details: Mesocricetus auratus, dose 50-200 mg/kg
[10] = tested on: Mus musculus; assay: Downregulation of Sdf2l1 mRNA level in liver of high-fat diet-fed C57BL/6 mouse model at 200 mg/kg, po for 4 weeks by GO analysis; type: functional, organism-based
[11] = Acute toxicity in golden hamster assessed as intense toxic response at 20 g/Kg, po measured for 14 days; type: organism-based, Mesocricetus auratus; details: in vivo, 20000 mg/kg, 336 h, time 14 day
[12] = Half life in female Rhesus monkey at 70 mg/kg, po or 7 mg/kg, iv measured for 36 hrs by LC-tandem MS analysis; type: ADME, organism-based, Macaca mulatta; details: in vivo
[13] = Cmax in female Rhesus monkey at 70 mg/kg, po or 7 mg/kg, iv measured for 36 hrs by LC-tandem MS analysis; type: ADME, organism-based, Macaca mulatta; details: in vivo
[14] = Stability in human liver microsomes assessed as drug metabolism at 1 uM measured after 5 mins in presence of NADPH by LC-MS/MS analysis; type: ADME, Microsome; details: read-out: Drug metabolism
[15] = Stability in human Caco-2 cells assessed as compound remaining at 10 ug/ml measured after 1 hr by LC-MS/MS analysis; type: ADME, cell-based; details: at 10 µg/mL, read-out: Stability
[16] = tested on: Syrian golden hamster; assay: Lipid lowering effect on high-fat diet-fed golden hamster assessed as decrease in ALT level in liver at 50 to 200 mg/kg, po qd administered via gavage measured after 4 weeks; type: functional, organism-based; details: Mesocricetus auratus, dose 50-200 mg/kg
[17] = tested on: Syrian golden hamster; assay: Lipid lowering effect on high-fat diet-fed golden hamster harboring LDLR-/- assessed as decrease in serum TC level at 200 mg/kg, po qd administered via gavage measured after 8 weeks relative to control; type: functional, Mesocricetus auratus; design: scale not given: the % may be the effect or the level left
[18] = tested on: Mus musculus; assay: Upregulation of Gadd45a mRNA level in liver of high-fat diet-fed C57BL/6 mouse model at 200 mg/kg, po for 4 weeks by GO analysis; type: functional, organism-based
[19] = tested on: Mus musculus; assay: Lipid lowering effect on high-fat diet-fed C57BL/6J mouse assessed as decrease in serum LDL-C level at 20 mg/kg/day, po administered via gavage measured after 7 days relative to control; type: functional; design: scale not given: the % may be the effect or the level left; details: time 7 day
[20] = tested on: Mus musculus; assay: Effect on Lepr mRNA level in liver of diet-induced obese C57BL/6 mouse model harboring AMPKalpha LS-/- at 200 mg/kg, po for 4 weeks by GO analysis; type: functional, organism-based
[21] = target: AMP-activated protein kinase, AMPK; assay: Binding affinity to recombinant AMPK (unknown origin)-immobilized in CM5 sensor chip assessed as dissociation constant by SPR analysis; type: protein-complex assay, Homo sapiens
[22] = target: AMP-activated protein kinase, AMPK; assay: Binding affinity to truncated AMPK (unknown origin) assessed as dissociation constant by CD analysis; type: protein-complex assay, Homo sapiens
[23] = tested on: Mus musculus; assay: Effect on Ctgf mRNA level in liver of diet-induced obese C57BL/6 mouse model harboring AMPKalpha LS-/- at 200 mg/kg, po for 4 weeks by GO analysis; type: functional, organism-based
[24] = tested on: Erythrocyte; assay: In vivo induction of AMPK phosphorylation in erythrocytes of human at 2000 mg measured after 5 to 12 hrs by ELISA; type: functional, organism-based; details: time 5-12 hrs
[25] = tested on: Syrian golden hamster; assay: Lipid lowering effect on high-fat diet-fed golden hamster assessed as decrease in serum LDL-C level at 200 mg/kg, po qd administered via gavage measured after 4 weeks relative to control; type: functional, Mesocricetus auratus; design: scale not given: the % may be the effect or the level left
[26] = tested on: Mus musculus; assay: Effect on Pcsk9 mRNA level in liver of diet-induced obese C57BL/6 mouse model harboring AMPKalpha LS-/- at 200 mg/kg, po for 4 weeks by GO analysis; type: functional, organism-based
[27] = Stability in human liver microsomes assessed as hepatic clearance at 1 uM measured for 60 mins in presence of NADPH by LC-MS/MS analysis; type: ADME, Microsome
[28] = species: Homo sapiens; assay: Downregulation of serum TC level in human at 2000 mg bid for 7 days; type: functional; details: time 7.0 day
[29] = tested on: Mus musculus; assay: Effect on Gadd45a mRNA level in liver of diet-induced obese C57BL/6 mouse model harboring AMPKalpha LS-/- at 200 mg/kg, po for 4 weeks by GO analysis; type: functional, organism-based
[30] = tested on: Mus musculus; assay: Upregulation of Lepr mRNA level in liver of high-fat diet-fed C57BL/6 mouse model at 200 mg/kg, po for 4 weeks by GO analysis; type: functional, organism-based
[31] = Stability in human liver microsomes assessed as […] at 1 uM measured for 60 mins in presence of NADPH by LC-MS/MS analysis; type: ADME, Microsome; details: read-out: QH
[32] = tested on: Mus musculus; assay: Effect on Gadd45b mRNA level in liver of diet-induced obese C57BL/6 mouse model harboring AMPKalpha LS-/- at 200 mg/kg, po for 4 weeks by GO analysis; type: functional, organism-based
[33] = tested on: Mus musculus; assay: Downregulation of Aacas mRNA level in liver of high-fat diet-fed C57BL/6 mouse model at 200 mg/kg, po for 4 weeks by GO analysis; type: functional, organism-based
[34] = tested on: Mus musculus; assay: Upregulation of Gadd45b mRNA level in liver of high-fat diet-fed C57BL/6 mouse model at 200 mg/kg, po for 4 weeks by GO analysis; type: functional, organism-based
[35] = tested on: Rhesus monkey; assay: Lipid lowering effect in Rhesus monkey assessed as decrease in serum LDL-C level at 35 mg/kg, NG qd treated for 35 days followed by drug washout for 14 days relative to control; type: functional, Macaca mulatta; design: scale not given: the % may be the effect or the level left; details: time 35 day
[36] = tested on: Syrian golden hamster; assay: Lipid lowering effect on high-fat diet-fed golden hamster assessed as decrease in serum TG level at 6 mg/kg, po qd administered via gavage measured after 4 weeks relative to control; type: functional, Mesocricetus auratus; design: scale not given: the % may be the effect or the level left
[37] = tested on: Mus musculus; assay: Lipid lowering effect on high-fat diet-fed Kunming mouse assessed as serum total cholesterol level at 50 mg/kg, po qd via gavage for 7 days consecutively (reference value: 159.3 +/- 11.5 mg/dl); type: functional; details: time 7 day

SMILES: CC(=O)OC[C@H]1O[C@@H](n2cnc3c(Nc4cccc(O)c4)ncnc32)[C@H](OC(C)=O)[C@@H]1OC(C)=O
- Activity [1]: Active
- remaining at 0.5 h, up to 5 µM [2]: ~70%
- AUC(0-t) at 36 h [3]: 102 ng·h/mL
- Activity [4]: 10.5%
- Activity [5]: inactive
- Cmax [6]: 20.4 ng/mL
- Activity [7]: inactive
- Tmax [8]: 1.5 h
- Activity [9]: inactive
- Activity [10]: Active
- Activity [11]: Non-Toxic
- half-life [12]: 4.15 h
- Cmax [13]: 25.9 ng/mL
- metabolised at 5 min, 1 µM [14]: > 80%
- remaining at 1 h, 10 ug/ml [15]: 77%
- Activity [16]: Active
- Activity [17]: 19%
- Activity [18]: Active
- Activity [19]: 22.2%
- Activity [20]: inactive
- Kd [21]: 17.9 µM
- Kd [22]: 0.21 µM
- Activity [23]: inactive
- Activity [24]: Active
- Activity [25]: 42%
- Activity [26]: inactive
- CLhep predicted at 1 µM [27]: 19.9 mL/min/kg
- Activity [28]: Active
- Activity [29]: inactive
- Activity [30]: Active
- hepatic extraction ratio at 1 h, 1 µM [31]: > 0.7
- Activity [32]: inactive
- Activity [33]: Active
- Activity [34]: Active
- Activity [35]: 4.83%
- Activity [36]: 52.8%
- Activity [37]: 151.7 mg/dL
